Data on 20 compounds can be found in US8703722B2, “Inhibitors of F18+ E coli binding” (priority 2008, dated 2014).

Experiment [1] deals with F18-positive E. coli strain 107/86. In words: Carbohydrate inhibition in the in vitro villous adhesion assay (bacteria pre-incubated with saccharide). It is filed as cell-based, Escherichia coli. Conditions: for Inhibition of F18+ E. coli adherence to porcine intestinal villi: Example 18, 1 mg saccharide in 100 μl PBS. From the text:
The nature of the F18R on porcine small intestinal villous enterocytes was investigated using an in vitro villous adhesion inhibition assay (Cox, E., Houvenaghel, A., 1993. Vet. Microbiol. 34(1), 7-18; Verdonck, F., Cox, E., van Gog, K., Van der Stede, Y., Duchateau, L., Deprez, P., Goddeeris, B. M., 2002. Vaccine 20(23-24), 2995-3004). Briefly, a 20 cm intestinal segment was collected from the mid jejunum of a euthanized pig, rinsed three times with ice cold PBS, and fixed with Krebs-Henseleit buffer (160 mM, pH 7.4) containing 1% (v/v) formaldehyde for 30 min at 4° C. Thereafter, the villi were gently scraped from the mucosae with a glass slide and stored in Krebs-Henseleit buffer at 4° C. Treatment of villi with acetone, methanol, 1% Triton® X-100, 10 mM NaIO4 in 0.2M sodium acetate, pH 4.5, or 0.2M sodium acetate, pH 4.5, without NaIO4, respectively, was performed at room temperature on a rotating wheel in a volume of 500 μl during 1 h. Next, the villi were washed 6 times with Krebs-Henseleit buffer followed by addition of 4×10^8 bacteria of the F18 positive reference E. coli strain (107/86), or the F4ac-expressing E. coli strain GIS 26, to an average of 50 villi in a total volume of 500 μl PBS, supplemented with 1% (w/v) D-mannose in order to prevent adhesion mediated by type 1 pili. These mixtures were incubated at room temperature for 1 h while being gently shaken. Villi were examined by phase-contrast microscopy at a magnification of 600, and the number of bacteria adhering along 50 μm brush border was quantitatively evaluated by counting the number of adhering bacteria at 20 randomly selected places, after which the mean bacterial adhesion was calculated.
The F18-positive E. coli strain 107/86 (8×10^7 bacteria) was incubated with different concentrations (10 mg/ml, 1 mg/ml, […]) of blood group H type 1 pentasaccharide (Fucα2Galβ3GlcNAcβ3Galβ4Glc) or lacto-N-tetraose saccharide (Galβ3GlcNAcβ3Galβ4Glc) (Glycoseparations, Moscow, Russia) in a final volume of 100 μl PBS, for 1 h at room temperature, while being gently shaken. The mixtures were then added to the villi, and again incubated for 1 h at room temperature with gentle shaking. Thereafter, the villi were examined by phase-contrast microscopy at a magnification of 600, and the number of bacteria adhering along a […] brush border was quantitatively evaluated by counting the number of adhering bacteria at 20 randomly selected places, after which the mean bacterial adhesion was calculated. Villi of two different F18R-positive pigs were used, and the countings were performed in triplicate.
The F18-positive E. coli strain 107/86 (8×10^7 bacteria) was incubated with 1 mg of blood group H type 1 pentasaccharide (H5-1, Fucα2Galβ3GlcNAcβ3Galβ4Glc), blood group A type 1 hexasaccharide (A6-1, GalNAcα3(Fucα2)Galβ3GlcNAcβ3Galβ4Glc), blood group B type 1 hexasaccharide (B6-1, Galα3(Fucα2)Galβ3GlcNAcβ3Galβ4Glc) or lacto-N-tetraose saccharide (LNT, Galβ3GlcNAcβ3Galβ4Glc) (Elicityl, Grenoble, France) in a final volume of 100 μl PBS, for 1 h at room temperature, while being gently shaken. The mixtures were then added to the villi, and again incubated for 1 h at room temperature with gentle shaking. Thereafter, the villi were examined by phase-contrast microscopy, and adhering bacteria were quantified as described above. Villi of two different F18R-positive pigs were used, and the countings were performed in triplicate.
The mixtures were then added to the villi, and again incubated for 1 h at room temperature with gentle shaking. Thereafter, the villi were examined by phase-contrast microscopy, and adhering bacteria were quantified as described above. Villi of one F18R-positive pig was used, and the countings were performed in duplicate.

In experiment [2] the test system is recombinant F18 fimbriae-expressing Escherichia coli (pIH120). The experiment can be described thus: Chromatogram binding assay: 35S-labelled F18 fimbriae-expressing E. coli to glycosphingolipids on thin-layer chromatograms. Conditions: for Binding of F18-fimbriated E. coli (in words): chromatogram binding assay, F18-expressing strain HB101(pIH120); for Detection limit of binding of F18-fimbriated E. coli: dilutions of glycosphingolipids on thin-layer chromatograms. As to the method:
Recombinant E. coli strains expressing whole F18 fimbriae (HB101(pIH120), or F18 fimbriae with deletion of the FedF adhesive subunit (HB101(pIH126)) (Imberechts et al., 1992; 1996), were grown on Iso Sensitest agar plates (Oxoid, Basingstoke, Hampshire, England) supplemented with ampicillin (100 μg/ml) at 37° C. over night. For metabolic labeling, the culture plates were supplemented with 10 μl ^35S-methionine (400 μCi; Amersham Pharmacia Biotech). Bacteria were harvested, washed three times in PBS, and resuspended in PBS containing 2% (w/v) bovine serum albumin, 0.1% (w/v) NaN3 and 0.1% (w/v) Tween 20 (BSA/PBS/TWEEN) to a bacterial density of 1×10^8 colony forming units/ml.
Aluminium- or glass-backed silica gel 60 high performance thin-layer chromatography plates (Merck, Darmstadt, Germany) were used for thin-layer chromatography, and eluted with chloroform/methanol/water (60:35:8, by volume) as solvent system. The different glycosphingolipids were applied to the plates in quantities of 0.002-4 μg of pure glycosphingolipids and 40 μg of glycosphingolipid mixtures. Chemical detection was done with anisaldehyde (Waldi D, 1962. Sprühreagentien für die dünnschicht-chromatographie, p. 496-515. In Stahl, E. (ed.), Dünnschicht-Chromatographie. Springer-Verlag, Berlin).
Binding of radiolabelled bacteria to glycosphingolipids on thin-layer chromatograms was done as described previously (Hansson G C, Karlsson K-A, Larson G, Strömberg N, Thurin J, 1985. Anal. Biochem. 146:158-163). Dried chromatograms were dipped in diethylether/n-hexane (1:5 v/v) containing 0.5% (w/v) polyisobutylmethacrylate for 1 min, dried, and then blocked with BSA/PBS/TWEEN for 2 h at room temperature. Thereafter, the plates were incubated with ^35S-labeled bacteria (1-5×10^6 cpm/ml) diluted in BSA/PBS/TWEEN for another 2 h at room temperature. After washing six times with PBS, and drying, the thin-layer plates were autoradiographed for 12 h using XAR-5 x-ray films (Eastman Kodak, Rochester, N.Y.).

[3] abbreviates: 1 h pre-incubation, villi of two pigs.
Setting [4] is: Example 17, 1 mg/ml saccharide, 100 μl PBS, 1 h pre-incubation, villi of two pigs.
The mark [5] stands for this setting: Example 17, 10 mg/ml saccharide, 100 μl PBS, 1 h pre-incubation, villi of two pigs.
[6] abbreviates: Example 17, 100 mg/ml saccharide (so in the source), 100 μl PBS, 1 h pre-incubation, villi of two pigs.

As for `CC(=O)NC1C(OC2C(O)C(CO)OC(OC3C(O)C(CO)OC(OC4C(O)C(CO)OC(OC5C(CO)OC(O)C(O)C5O)C4O)C3NC(C)=O)C2OC2OC(C)C(O)C(O)C2O)OC(CO)C(O)C1O` (stereo not shown) [A6-1, GalNAcα3(Fucα2)Galβ3GlcNAcβ3Galβ4Glc], the “Inhibition of F18+ E. coli adherence to porcine intestinal villi” value (shortened to “Inhibition of F18+ E. coli adherence”) in experiment [1] (setting [3]) was determined as 72.9%.

For `CC(=O)NC1C(OC2C(O)C(CO)OC(OC3C(CO)OC(O)C(O)C3O)C2O)OC(CO)C(O)C1OC1OC(CO)C(O)C(OC2OC(CO)C(O)C(O)C2O)C1OC1OC(C)C(O)C(O)C1O` (stereo not shown) [B6-1, Galα3(Fucα2)Galβ3GlcNAcβ3Galβ4Glc], the “Inhibition of F18+ E. coli adherence” value in experiment [1] (setting [3]) is 86.8%. For the compound `CC(=O)N[C@H]1[C@H](O[C@H]2[C@@H](O)[C@@H](CO)O[C@@H](O[C@H]3[C@H](O)[C@@H](O)C(O)O[C@@H]3CO)[C@@H]2O)O[C@H](CO)[C@@H](O)[C@@H]1O[C@@H]1O[C@H](CO)[C@H](O)[C@H](O)[C@H]1O[C@@H]1O[C@@H](C)[C@@H](O)[C@@H](O)[C@@H]1O` (stereo partly shown) [H5-1, Fucα2Galβ3GlcNAcβ3Galβ4Glc], the “Reduction (inhibition) of adherence of F18-positive E. coli to porcine intestinal villi” value is 68.5% in experiment [1] (setting [4]) and 87.1% in experiment [1] (setting [5]). Also, the “Inhibition of adherence of F18-positive E. coli to porcine intestinal villi” value in experiment [1] (setting [6]) is recorded as 1.4%. For the same compound, in experiment [1] (setting [3]), the “Inhibition of F18+ E. coli adherence” value came out at 52.4%. In the same order, the values of `CC(=O)N[C@H]1[C@H](O[C@H]2[C@@H](O)[C@@H](CO)O[C@@H](O[C@H]3[C@H](O)[C@@H](O)C(O)O[C@@H]3CO)[C@@H]2O)O[C@H](CO)[C@@H](O)[C@@H]1O[C@@H]1O[C@H](CO)[C@H](O)[C@H](O)[C@H]1O` (stereo partly shown) [LNT, Galβ3GlcNAcβ3Galβ4Glc, reference compound] are 5.8%, 5.8%, 4.2% and 2.8%. Consider `C[C@@H]1O[C@@H](O[C@H]2C(O)O[C@H](CO)[C@H](O)[C@@H]2O)[C@@H](O)[C@H](O)[C@@H]1O` (stereo partly shown) [blood group H disaccharide, Fucα2Gal], for which the “Inhibition of adherence of F18-positive E. coli to porcine intestinal villi” value in experiment [1] (Example 21, 0.2 mg in 100 μl PBS, villi of one pig) amounted to 5.1%. Besides, the “Reduction of adherence of F18-positive E. coli to porcine intestinal villi” value in experiment [1] (Example 21, 1 mg in 100 μl PBS, villi of one pig) turned out to be 83.7%. In the case of “Fucα2Galβ3(Fucα4)GlcNAcβ3Galβ4Glcβ1Cer [No. 22, reference compound]”, the “Binding of F18-fimbriated E. coli (in words)” value (from here on “Binding … (in words)”) in experiment [2] is listed as “not recognized”. For “Fucα2Galβ3GalNAcβ4Galβ4Glcβ1Cer [No. 11, reference compound]”, the “Binding … (in words)” value in experiment [2] is “absence of binding”. As for “Fucα2Galβ3GlcNAcβ3Galβ4Glcβ1Cer [No. 23]”, the “Binding … (in words)” value in experiment [2] (listed as H type 1 pentaglycosylceramide) is recorded as “bound”. For the same compound, the “Detection limit of binding of F18-fimbriated E. coli” value (shortened to “Detection limit”) in experiment [2] is 2 µg. For Fucα2Galβ3GlcNAcβ3Galβ4Glcβ1Cer [O-I], the “Binding … (in words)” value in experiment [2] was “F18 fimbriae-binding”. On the same count and under the same terms, with “Fucα2Galβ4GlcNAcβ3Galβ4Glcβ1Cer [No. 14, reference compound]” the entry was “no type 2 core counterparts of these compounds were recognized”. With “GalNAcα3(Fucα2)Galβ3(Fucα4)GlcNAcβ3Galβ4Glcβ1Cer [No. 26]”, in experiment [2], the “Binding … (in words)” value is on record as “bound” and the “Detection limit” value is 0.8 µg.

Consider “GalNAcα3(Fucα2)Galβ3GalNAcβ3Galα4Galβ4Glcβ1Cer [No. 32]”, for which the “Detection limit” value in experiment [2] is given as “approximately 0.8 μg”. As to “GalNAcα3(Fucα2)Galβ3GlcNAcβ3Galβ4Glcβ1Cer [A-I]”, the “Binding … (in words)” value in experiment [2] is “F18-fimbriated E. coli binding”. For “GalNAcα3(Fucα2)Galβ3GlcNAcβ3Galβ4Glcβ1Cer [No. 25]”, the “Binding … (in words)” value in experiment [2] (listed as A type 1 hexaglycosylceramide) is listed as “bound”. The “Detection limit” value in experiment [2] is on record as “approximately 0.08 μg”.

For the compound “GalNAcα3(Fucα2)Galβ4(Fucα3)GlcNAcβ3Galβ4Glcβ1Cer [No. 19, reference compound]”, in experiment [2], the “Binding … (in words)” value was “no type 2 core counterparts of these compounds were recognized”. For the compound “GalNAcα3(Fucα2)Galβ4GlcNAcβ3Galβ4Glcβ1Cer [No. 17, reference compound]”, the “Binding … (in words)” value in experiment [2] is listed as “no type 2 core counterparts of these compounds were recognized”. With “Galα3(Fucα2)Galβ3(Fucα4)GlcNAcβ3Galβ4Glcβ1Cer [No. 27]”, in experiment [2], the “Binding … (in words)” value was “bound”.

Consider “Galα3(Fucα2)Galβ3GlcNAcβ3Galβ4Glcβ1Cer [No. 24]”, for which, in experiment [2], the “Binding … (in words)” value is on record as “bound” and the “Detection limit” value is given as “approximately 0.08 μg”. In the case of “Galα3(Fucα2)Galβ4GlcNAcβ3Galβ4Glcβ1Cer [No. 16, reference compound]”, in experiment [2], the “Binding … (in words)” value is “no type 2 core counterparts of these compounds were recognized”.

For “Galβ3GlcNAcβ3Galβ4Glcβ1Cer [No. 20, reference compound]”, in experiment [2], the “Binding … (in words)” value is given as “devoid of FedF-mediated binding activity”.
